Data reported in PubChem BioAssay AID1963854 (Molecular Pharmacology Branch, DTP, NCI, 2024).

Tested on: 186277-243-T-J2-PDC complex spheroid viability
Test: Anticancer human tumor 186277-243-T-J2-PDC patient-derived colon adenocarcinoma cell line growth inhibition [POLQ]
Conditions: for IC50: curve of first compound; for viability, T/C: stronger effect = lower value; active = viability on the fitted dose curve at most 10% of control; inactive = the rest
Method: Multicellular complex tumor spheroid response to Polymerase (POL) inhibitors (novobiocin, ART-558, RP6685) in combination with a variety of drugs and investigational agents in selected tumor cell lines
The POL inhibitors (novobiocin, ART-558, and RP6685) were evaluated both individually and in combination with standard of care and investigational anticancer small molecules within a complex spheroid model of solid tumors. . Complex spheroids include a stromal component modeled by human endothelial cells (HUVEC) and fibroblasts modeled by human mesenchymal stem cells (MSCs). The concentration ranges selected for each drug and investigational agent were based upon clinically achievable concentrations if the clinical Cmax of the agent was known.
Compounds. The drugs and investigational agents: novobiocin (NSC847541), ART-558 (NSC835418), RP-6685 (NSC848927), peposertib (NSC802822), ceralasertib (NSC780249), elimusertib (NSC800525), camonsertib (NSC841442), AZD-1390 (NSC803789), olaparib (NSC753686), talazoparib (NSC767125), rucaparib (NSC756644), sotorasib (NSC818433), MRTX-1133 (NSC836407), SN-38 (NSC673596), topotecan (NSC609699), epotoside (NSC141540), doxorubicin (NSC123127), gemcitabine (NSC613327), 5-fluorouracil (NSC19893), paclitaxel (NSC125973), vemurafenib (NSC761431), MSA-2 (NSC828583), SN-011 (NSC837082), adavosertib (NSC754352), prexasertib (NSC758257), carboplatin (NSC241240) and oxaliplatin (NSC266046), were obtained from the National Cancer Institute (NCI) Developmental Therapeutics Program Chemical Repository (21). The FDA-approved anticancer drug set is available from the Developmental Therapeutics Program at https://dtp.cancer.gov/organization/dscb/obtaining/. […] The stock solutions were prepared in dimethyl sulfoxide (DMSO, Sigma-Aldrich, St. Louis, MO, cat. D2650), except for the platinum compounds which were prepared in saline (Quality Biological, Gaithersburg, MD, cat. 114-055-101), at 800-fold the tested concentration and stored at -70 degrees C prior to their use. All drugs and investigational agents were tested over a range starting from a high concentration at or near the clinical Cmax and decreasing in half-log increments. If the clinical Cmax for an agent had not been determined, the highest concentration tested was 10 microM, except for SN-38, which was tested at a high concentration of 1 microM.
Cell Culture. All cells were maintained in an incubator at 37 degrees C and 5% CO2 with 95% humidity. The PDC lines were cultured according to standard operating procedures established by the NCI PDMR (https://pdmr.cancer.gov). Table 3 of the manuscript, lists the cell lines along with the number of the three cell types plated to form the mct-spheroids and media for tumor cell growth. After thawing, all PDC lines, except 997537-175-T-J1-PDC and 415267-285-R-J2-PDC, were cultured in Matrigel-coated flasks prepared with a working solution of 1X Ham's F-12 nutrient mix, without supplementation (Thermo Fisher Scientific, cat. 11765054), 100 U/mL penicillin-streptomycin (Thermo Fisher Scientific, cat. 15140122), and 2.5% Matrigel (Corning Inc., Corning, NY, cat. 354248) for the first three passages. The two PDC lines 997537-175-T-J1-PDC and 415267-285-R-J2-PDC were cultured on uncoated flasks. The 857933-349-R-J2-PDC line was cultured in 6C/Colon 1B media containing advanced DMEM/F-12 (Thermo Fisher Scientific, cat. 12634028), 10 mM HEPES (Thermo Fisher Scientific, cat. 15630080), 1X GlutaMAX supplement (Thermo Fisher Scientific, cat. 35050061), 0.1 mg/mL primocin (InvivoGen, San Diego, CA, cat. ant-pm-2), 10% defined fetal bovine serum, heat inactivated (HyClone Laboratories Inc., Logan, UT, cat. SH30070.03HI), 50% L-WRN conditioned media (ATCC, cat. CRL-3276), 1.25 mM N-Acetyl-L-cysteine (Sigma-Aldrich, cat. A9165), 10 mM nicotinamide (Sigma-Aldrich, cat. N0636), 1X B-27 supplement (Thermo Fisher Scientific, cat. 17504044), 1X N-2 supplement (Thermo Fisher Scientific, cat. […]

[1] = second compound 0.0316 µM, first compound 0.0316 µM
[2] = second compound 0.0316 µM, first compound 0.1 µM
[3] = second compound 0.1 µM, first compound 0.0316 µM
[4] = second compound 0.1 µM, first compound 0.1 µM
[5] = second compound 0.316 µM, first compound 0.0316 µM
[6] = second compound 0.316 µM, first compound 0.1 µM
[7] = second compound 1 µM, first compound 0.0316 µM
[8] = second compound 1 µM, first compound 0.1 µM
[9] = second compound 3.16 µM, first compound 0.0316 µM
[10] = second compound 3.16 µM, first compound 0.1 µM
[11] = second compound 10 µM, first compound 0.0316 µM
[12] = second compound 10 µM, first compound 0.1 µM
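Also: spheroids exposed to compounds for seven days.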

Cn1ncnc1[C@H]1c2n[nH]c(=O)c3cc(F)cc(c23)N[C@@H]1c1ccc(F)cc1 + Nc1ccc(C#CCN(C(=O)Cc2ncc(C(F)(F)F)cc2C(F)(F)F)c2ccc(F)cc2)nn1
> 0.1 µM: IC50 (second compound 0.0316 µM) | IC50 (second compound 0.1 µM) | IC50 (second compound 0.316 µM) | IC50 (second compound 1 µM) | IC50 (second compound 3.16 µM) | IC50 (second compound 10 µM)
inactive: viability, T/C (second compound 0.0316 µM, first compound 0.000316 µM) 101% | viability, T/C (second compound 0.0316 µM, first compound 0.001 µM) 90.9% | viability, T/C (second compound 0.0316 µM, first compound 0.00316 µM) 110% | viability, T/C (second compound 0.0316 µM, first compound 0.01 µM) 113% | viability, T/C [1] 130% | viability, T/C [2] 124% | viability, T/C (second compound 0.1 µM, first compound 0.000316 µM) 103% | viability, T/C (second compound 0.1 µM, first compound 0.001 µM) 101% | viability, T/C (second compound 0.1 µM, first compound 0.00316 µM) 111% | viability, T/C (second compound 0.1 µM, first compound 0.01 µM) 105% | viability, T/C [3] 125% | viability, T/C [4] 142% | viability, T/C (second compound 0.316 µM, first compound 0.000316 µM) 87.5% | viability, T/C (second compound 0.316 µM, first compound 0.001 µM) 110% | viability, T/C (second compound 0.316 µM, first compound 0.00316 µM) 102% | viability, T/C (second compound 0.316 µM, first compound 0.01 µM) 111% | viability, T/C [5] 119% | viability, T/C [6] 143% | viability, T/C (second compound 1 µM, first compound 0.000316 µM) 91.3% | viability, T/C (second compound 1 µM, first compound 0.001 µM) 116% | viability, T/C (second compound 1 µM, first compound 0.00316 µM) 103% | viability, T/C (second compound 1 µM, first compound 0.01 µM) 106% | viability, T/C [7] 120% | viability, T/C [8] 126% | viability, T/C (second compound 3.16 µM, first compound 0.000316 µM) 92.3% | viability, T/C (second compound 3.16 µM, first compound 0.001 µM) 111% | viability, T/C (second compound 3.16 µM, first compound 0.00316 µM) 112% | viability, T/C (second compound 3.16 µM, first compound 0.01 µM) 105% | viability, T/C [9] 116% | viability, T/C [10] 140% | viability, T/C (second compound 10 µM, first compound 0.000316 µM) 93.4% | viability, T/C (second compound 10 µM, first compound 0.001 µM) 104% | viability, T/C (second compound 10 µM, first compound 0.00316 µM) 106% | viability, T/C (second compound 10 µM, first compound 0.01 µM) 103% | viability, T/C [11] 117% | viability, T/C [12] 121%

CCc1cc2c(N3CCc4c(cc(Cn5ccnc5)cc4-c4cn(C)nc4C(F)(F)F)C3=O)ccnc2c(OC)n1 + Cc1cccc(N(C)C(=O)C2C(O)CCN2c2nc(C)cc(C(F)(F)F)c2C#N)c1
inactive: viability, T/C [1] 96.1% | viability, T/C [2] 82.8% | viability, T/C (second compound 0.0316 µM, first compound 0.316 µM) 96.2% | viability, T/C (second compound 0.0316 µM, first compound 1 µM) 96.2% | viability, T/C (second compound 0.0316 µM, first compound 3.16 µM) 106% | viability, T/C (second compound 0.0316 µM, first compound 10 µM) 100% | viability, T/C [3] 90.7% | viability, T/C [4] 98.5% | viability, T/C (second compound 0.1 µM, first compound 0.316 µM) 107% | viability, T/C (second compound 0.1 µM, first compound 1 µM) 88.6% | viability, T/C (second compound 0.1 µM, first compound 3.16 µM) 112% | viability, T/C (second compound 0.1 µM, first compound 10 µM) 103% | viability, T/C [5] 96.7% | viability, T/C [6] 95.2% | viability, T/C (second compound 0.316 µM, first compound 0.316 µM) 97.2% | viability, T/C (second compound 0.316 µM, first compound 1 µM) 106% | viability, T/C (second compound 0.316 µM, first compound 3.16 µM) 109% | viability, T/C (second compound 0.316 µM, first compound 10 µM) 107% | viability, T/C [7] 102% | viability, T/C [8] 127% | viability, T/C (second compound 1 µM, first compound 0.316 µM) 107% | viability, T/C (second compound 1 µM, first compound 1 µM) 100% | viability, T/C (second compound 1 µM, first compound 3.16 µM) 93.6% | viability, T/C (second compound 1 µM, first compound 10 µM) 102% | viability, T/C [9] 93.8% | viability, T/C [10] 97.3% | viability, T/C (second compound 3.16 µM, first compound 0.316 µM) 100% | viability, T/C (second compound 3.16 µM, first compound 1 µM) 118% | viability, T/C (second compound 3.16 µM, first compound 3.16 µM) 119% | viability, T/C (second compound 3.16 µM, first compound 10 µM) 106% | viability, T/C [11] 114% | viability, T/C [12] 94.7% | viability, T/C (second compound 10 µM, first compound 0.316 µM) 111% | viability, T/C (second compound 10 µM, first compound 1 µM) 96.8% | viability, T/C (second compound 10 µM, first compound 3.16 µM) 108% | viability, T/C (second compound 10 µM, first compound 10 µM) 109%
> 10 µM: IC50 (second compound 0.0316 µM) | IC50 (second compound 0.1 µM) | IC50 (second compound 0.316 µM) | IC50 (second compound 1 µM) | IC50 (second compound 3.16 µM) | IC50 (second compound 10 µM)
